Test results from patent US8877741B2, “Pyrrolidine derivatives, pharmaceutical compositions and uses thereof” (Boehringer Ingelheim International GmbH, priority 2013, dated 2014).

Target: human ACC2 (Homo sapiens (Human), UniProt O00763)
Assay: ACC2 assay, spectrophotometric 384 well assay (NADH-linked kinetic method)
Type: biochemical
Settings: human ACC2 construct lacking the 128 N-terminal amino acids; coupled lactate dehydrogenase/pyruvate kinase reaction, 340 nm, 25° C.
Method in brief: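 N-terminally truncated human ACC2 (lacking 128 residues), expressed in insect cells, was coupled to pyruvate kinase/lactate dehydrogenase, with NADH and acetyl-CoA at 2000 μM and ATP at 500 μM final. The OD340 decrease was followed over 15 min at 25 °C. Slopes were normalised to vehicle and no-acetyl-CoA controls, and IC50 came from four-parameter regression.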

Sequence of human ACC2 (O00763 129-2458): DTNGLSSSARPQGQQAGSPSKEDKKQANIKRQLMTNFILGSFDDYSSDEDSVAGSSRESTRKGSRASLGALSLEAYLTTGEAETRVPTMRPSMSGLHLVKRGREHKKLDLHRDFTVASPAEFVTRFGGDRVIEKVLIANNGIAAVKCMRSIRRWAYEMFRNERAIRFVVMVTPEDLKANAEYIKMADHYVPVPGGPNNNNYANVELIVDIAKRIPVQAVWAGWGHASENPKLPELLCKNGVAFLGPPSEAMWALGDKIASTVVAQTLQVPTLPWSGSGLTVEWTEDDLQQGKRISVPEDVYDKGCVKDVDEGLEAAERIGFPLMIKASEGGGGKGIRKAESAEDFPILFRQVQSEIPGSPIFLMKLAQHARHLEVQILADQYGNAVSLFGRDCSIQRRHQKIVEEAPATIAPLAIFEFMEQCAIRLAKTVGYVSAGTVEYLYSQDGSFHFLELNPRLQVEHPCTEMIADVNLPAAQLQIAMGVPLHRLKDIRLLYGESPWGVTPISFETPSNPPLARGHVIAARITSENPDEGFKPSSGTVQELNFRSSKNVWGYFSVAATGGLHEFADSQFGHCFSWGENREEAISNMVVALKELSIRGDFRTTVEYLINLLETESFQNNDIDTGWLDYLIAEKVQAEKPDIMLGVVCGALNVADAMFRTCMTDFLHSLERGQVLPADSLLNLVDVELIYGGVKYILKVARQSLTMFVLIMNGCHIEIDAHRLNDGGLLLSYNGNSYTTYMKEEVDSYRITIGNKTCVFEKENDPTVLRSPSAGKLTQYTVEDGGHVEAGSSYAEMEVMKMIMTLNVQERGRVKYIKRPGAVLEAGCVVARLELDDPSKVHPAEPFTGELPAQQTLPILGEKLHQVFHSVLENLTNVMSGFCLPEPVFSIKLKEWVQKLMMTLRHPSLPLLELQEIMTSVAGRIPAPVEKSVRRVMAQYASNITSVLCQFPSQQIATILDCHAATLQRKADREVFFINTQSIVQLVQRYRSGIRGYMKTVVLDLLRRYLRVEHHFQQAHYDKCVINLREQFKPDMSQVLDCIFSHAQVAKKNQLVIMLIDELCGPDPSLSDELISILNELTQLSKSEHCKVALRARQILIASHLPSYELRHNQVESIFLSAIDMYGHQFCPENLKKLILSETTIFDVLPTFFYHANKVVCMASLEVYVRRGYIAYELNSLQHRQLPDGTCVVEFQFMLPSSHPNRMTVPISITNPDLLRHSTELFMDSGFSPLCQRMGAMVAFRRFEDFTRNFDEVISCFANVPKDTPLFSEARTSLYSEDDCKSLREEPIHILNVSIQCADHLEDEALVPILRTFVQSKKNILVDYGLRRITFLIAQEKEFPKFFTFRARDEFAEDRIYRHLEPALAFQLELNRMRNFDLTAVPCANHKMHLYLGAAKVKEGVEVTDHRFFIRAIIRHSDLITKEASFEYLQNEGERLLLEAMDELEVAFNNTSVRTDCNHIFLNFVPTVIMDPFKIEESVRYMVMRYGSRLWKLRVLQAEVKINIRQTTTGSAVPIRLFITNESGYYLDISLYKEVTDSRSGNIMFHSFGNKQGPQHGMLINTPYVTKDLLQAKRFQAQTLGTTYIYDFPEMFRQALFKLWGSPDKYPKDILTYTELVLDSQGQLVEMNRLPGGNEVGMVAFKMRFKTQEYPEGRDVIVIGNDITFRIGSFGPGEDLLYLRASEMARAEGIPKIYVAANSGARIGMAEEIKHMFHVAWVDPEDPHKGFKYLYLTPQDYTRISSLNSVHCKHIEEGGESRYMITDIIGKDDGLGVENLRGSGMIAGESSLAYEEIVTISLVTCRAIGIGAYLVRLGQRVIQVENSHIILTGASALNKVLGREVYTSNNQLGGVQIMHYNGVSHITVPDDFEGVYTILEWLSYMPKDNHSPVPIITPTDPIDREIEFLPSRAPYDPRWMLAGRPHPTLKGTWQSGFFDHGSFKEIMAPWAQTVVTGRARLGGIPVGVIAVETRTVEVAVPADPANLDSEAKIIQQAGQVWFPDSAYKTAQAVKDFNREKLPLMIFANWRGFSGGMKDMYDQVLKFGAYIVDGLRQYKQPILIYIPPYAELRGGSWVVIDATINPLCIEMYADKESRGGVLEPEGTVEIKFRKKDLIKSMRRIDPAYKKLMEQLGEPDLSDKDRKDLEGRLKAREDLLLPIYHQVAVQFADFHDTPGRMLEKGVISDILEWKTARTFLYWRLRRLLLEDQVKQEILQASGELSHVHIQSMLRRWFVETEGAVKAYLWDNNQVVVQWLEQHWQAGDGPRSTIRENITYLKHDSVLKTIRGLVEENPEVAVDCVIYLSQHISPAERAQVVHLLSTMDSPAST

## CC(C)Oc1cc(N2CCC(Oc3ccc([C@H](C)NC(=O)c4cnn(C)c4)cc3)C2)ccn1 (some centres unmarked) [Example 2.4]
  IC50: 145 nM

## C[C@H](NC(=O)N(C)C)c1ccc(OC2CCN(c3ccnc(OCC4CC4(F)F)c3F)C2)cc1 (some centres unmarked) [Example 5.4]
  IC50: 49 nM

## COc1cc(N2CC[C@@H](Oc3ccc([C@H](C)NC(C)=O)cc3)C2)cnc1OCC1CC1 [Example 1.122]
  IC50: 2710 nM

## CC(=O)N[C@@H](C)c1ccc(O[C@@H]2CCN(c3ccc(OCC(F)(F)C(F)F)cn3)C2)cc1 [Example 11.2]
  IC50: 870 nM

## CC(=O)N[C@@H](C)c1ccc(OC2CCN(c3ccc(OCC(C)(F)F)cn3)C2)cc1 (some centres unmarked) [Example 1.91]
  IC50: 661 nM

## COC(=O)N[C@@H](C)c1ccc(OC2CCN(c3ccc(OCC4CC4(F)F)cn3)C2)cc1 (some centres unmarked) [Example 4.3]
  IC50: 59 nM

## CCCNc1nccc(N2CCC(Oc3ccc([C@H](C)NC(=O)OC)cc3)C2)c1F (some centres unmarked) [Example 4.8]
  IC50: 77 nM

## CC(=O)N[C@@H](C)c1ccc(OC2CCN(c3ncc(OCC4CC4)cc3C)C2)cc1 (some centres unmarked) [Example 1.41]
  IC50: 154 nM

## CCNc1nccc(N2CC[C@@H](Oc3ccc([C@H](C)NC(C)=O)cc3)C2)c1F [Example 1.115]
  IC50: 260 nM

## CC(=O)N[C@@H](C)c1ccc(OC2CCN(c3ccnc(OCC4CC4(F)F)c3)C2)cc1 (some centres unmarked) [Example 1.19]
  IC50: 54 nM

## CCC(=O)N[C@@H](C)c1ccc(OC2CCN(c3cccc(C(F)(F)F)n3)C2)cc1 (some centres unmarked) [Example 2.41]
  IC50: 315 nM

## CC(=O)N[C@@H](C)c1ccc(O[C@@H]2CCN(c3ccnc(N4CCC(F)(F)C4)c3F)C2)cc1 [Example 1.110]
  IC50: 23 nM

## CC(=O)N[C@@H](C)c1ccc(O[C@@H]2CCN(c3ccnc(N4CCC4)c3Cl)C2)cc1 [Example 1.131]
  IC50: 76 nM

## CC(=O)N[C@@H](C)c1ccc(O[C@@H]2CCN(c3cccc(N(C)CC(F)F)n3)C2)cc1 [Example 1.133]
  IC50: 246 nM

## C[C@H](NC(=O)N(C)C)c1ccc(OC2CCN(c3ccnc(OCC4CC4)c3)C2)cc1 (some centres unmarked) [Example 1.53]
  IC50: 85 nM

## CCN(C)C(=O)N[C@@H](C)c1ccc(OC2CCN(c3ccc(OCC4CC4(F)F)cn3)C2)cc1 (some centres unmarked) [Example 3.8]
  IC50: 90 nM

## CC(=O)N[C@@H](C)c1ccc(O[C@@H]2CCN(c3cccc(N4CCCCC4)n3)C2)cc1 [Example 10.4]
  IC50: 261 nM

## CC(=O)N[C@@H](C)c1ccc(O[C@@H]2CCN(c3cccc(N4CCOCC4)n3)C2)cc1 [Example 10.13]
  IC50: 498 nM

## C[C@H](NC(=O)C1(C(F)(F)F)CC1)c1ccc(OC2CCN(c3cccc(C(F)(F)F)n3)C2)cc1 (some centres unmarked) [Example 2.37]
  IC50: 247 nM

## CC(=O)N[C@@H](C)c1ccc(O[C@@H]2CCN(c3ccnc(OCC4CCCO4)c3)C2)cc1 (some centres unmarked) [Example 9.49]
  IC50: 668 nM

## COC(=O)N[C@@H](C)c1ccc(O[C@@H]2CCN(c3ccc(OC[C@H]4CC4(F)F)cn3)C2)cc1 [Example 4.1, Methyl (S)-1-(4-((R)-1-(5-(((R)-2,2-difluorocyclopropyl)methoxy)pyridin-2-yl)pyrrolidin-3-yloxy)phenyl)ethylcarbamate]
  IC50: 39 nM

## CC(=O)N[C@@H](C)c1ccc(OC2CCN(c3ncc(OC(C)C)cc3F)C2)cc1 (some centres unmarked) [Example 1.22]
  IC50: 104 nM

## CC(C)COc1cc(N2CC[C@@H](Oc3ccc([C@H](C)NC(=O)C4CC4)cc3)C2)ccn1 [Example 9.36]
  IC50: 209 nM

## CC(=O)N[C@@H](C)c1ccc(O[C@@H]2CCN(c3ccnc(OCC4CCC4)c3)C2)cc1 [Example 9.15]
  IC50: 40 nM

## C[C@H](NC(=O)c1ccnnc1)c1ccc(OC2CCN(c3ccnc(OCC(F)F)c3)C2)cc1 (some centres unmarked) [Example 2.108]
  IC50: 714 nM

## CCCOc1cc(N2CC[C@@H](Oc3ccc([C@H](C)NC(=O)c4cncs4)cc3)C2)ccn1 [Example 9.64]
  IC50: 35 nM

## C[C@H](NC(=O)c1cnco1)c1ccc(OC2CCN(c3ccnc(N4CCC(F)(F)C4)c3F)C2)cc1 (some centres unmarked) [Example 2.126]
  IC50: 45 nM

## CC(=O)N[C@@H](C)c1ccc(O[C@@H]2CCN(c3ccnc(OCCO)c3F)C2)cc1 [Example 9.75]
  IC50: 881 nM

## CC(C)Oc1cc(N2CCC(Oc3ccc([C@H](C)NC(=O)N(C)C)cc3)C2)ccn1 (some centres unmarked) [Example 3.2]
  IC50: 65 nM

## CC(=O)N[C@@H](C)c1ccc(OC2CCN(c3cc(OCC(C)C)ncc3F)C2)cc1 (some centres unmarked) [Example 1.75]
  IC50: 30 nM

## CC(=O)N[C@@H](C)c1ccc(O[C@@H]2CCN(c3ccnc(OC4CCOCC4)c3)C2)cc1 [Example 9.22]
  IC50: 140 nM

## CC(=O)N[C@@H](C)c1ccc(OC2CN(c3ccc(OCC4CC4(F)F)cn3)C[C@H]2F)cc1 (some centres unmarked) [Example 1.94]
  IC50: 94 nM

## CCC(=O)Nc1nc(C)c(C(=O)N[C@@H](C)c2ccc(O[C@@H]3CCN(c4ccnc(OCC5CC5)c4Cl)C3)cc2)s1 [Example 9.73]
  IC50: 45 nM

## CC(=O)N[C@@H](C)c1ccc(O[C@@H]2CCN(c3ccnc(OC4CC=CC4)c3)C2)cc1 [Example 9.11]
  IC50: 68 nM

## CC(=O)N[C@@H](C)c1ccc(O[C@@H]2CCN(c3cccc(N4CC=CC4)n3)C2)cc1 [Example 10.44]
  IC50: 665 nM

## CC(=O)N[C@@H](C)c1ccc(O[C@@H]2CCN(c3ccnc(OCc4ccncc4)c3)C2)cc1 [Example 9.35]
  IC50: 584 nM

## CC(=O)N[C@@H](C)c1ccc(O[C@@H]2CCN(c3cccc(N4CCC(C)C4)n3)C2)cc1 (some centres unmarked) [Example 10.10]
  IC50: 115 nM

## C[C@H](NC(=O)C(F)F)c1ccc(OC2CCN(c3cccc(C(F)(F)F)n3)C2)cc1 (some centres unmarked) [Example 2.32]
  IC50: 120 nM

## CC(C)Oc1cc(N2CCC(Oc3ccc([C@H](C)NC(=O)c4ccno4)cc3)C2)ccn1 (some centres unmarked) [Example 2.10]
  IC50: 670 nM

## CCCNc1nccc(N2CC[C@@H](Oc3ccc([C@H](C)NC(C)=O)cc3)C2)c1Cl [Example 1.135]
  IC50: 62 nM

## C[C@H](NC(=O)N(C)C)c1ccc(OC2CCN(c3cccc(C(F)(F)F)n3)C2)cc1 (some centres unmarked) [Example 5.2]
  IC50: 90 nM

## Cc1cc(C(=O)N[C@@H](C)c2ccc(OC3CCN(c4cccc(C(F)(F)F)n4)C3)cc2)no1 (some centres unmarked) [Example 2.61]
  IC50: 35 nM

## COC(=O)N[C@@H](C)c1ccc(OC2CCN(c3ccnc(N4CCC(F)(F)C4)c3F)C2)cc1 (some centres unmarked) [Example 4.7]
  IC50: 134 nM

## CC(=O)N[C@@H](C)c1ccc(OC2CCN(c3cc(OCC4CC4(F)F)ncc3F)C2)cc1 (some centres unmarked) [Example 1.76]
  IC50: 63 nM

## CC(=O)N[C@@H](C)c1ccc(O[C@@H]2CCN(c3ccnc(N4CCCC4)c3F)C2)cc1 [Example 10.16]
  IC50: 35 nM

## CC(=O)N[C@@H](C)c1ccc(OC2CCN(c3ccc(C4CC4)cn3)C2)cc1 (some centres unmarked) [Example 1.70]
  IC50: 722 nM

## CC(=O)N[C@@H](C)c1ccc(O[C@@H]2CCN(c3ccnc(N4CCOCC4)c3F)C2)cc1 [Example 10.15]
  IC50: 150 nM

## CC(=O)NC1CCCN(C(=O)N[C@@H](C)c2ccc(OC3CCN(c4ccc(OCC5CC5(F)F)cn4)C3)cc2)C1 (some centres unmarked) [Example 3.21]
  IC50: 363 nM

## CCCOc1cnc(N2CCC(Oc3ccc([C@H](C)NC(C)=O)cc3)C2)c(C)c1 (some centres unmarked) [Example 1.39]
  IC50: 379 nM

## CC(=O)N[C@@H](C)c1ccc(O[C@@H]2CCN(c3cccc(N4CCCC4)n3)C2)cc1 [Example 10.3]
  IC50: 153 nM

## CC(=O)N[C@@H](C)c1ccc(OC2CCN(c3cc(OCC4CC4(F)F)ncc3C)C2)cc1 (some centres unmarked) [Example 1.89]
  IC50: 278 nM

## COc1cc(OCC2CC2(F)F)cnc1N1CCC(Oc2ccc([C@H](C)NC(C)=O)cc2)C1 (some centres unmarked) [Example 1.81]
  IC50: 425 nM

## CC(=O)N[C@@H](C)c1ccc(O[C@@H]2CCN(c3ccnc(NCC(F)F)c3F)C2)cc1 [Example 1.116]
  IC50: 177 nM

## CCC(=O)Nc1nc(C)c(C(=O)N[C@@H](C)c2ccc(O[C@@H]3CCN(c4ccc(OC[C@@H]5CC5(F)F)cn4)C3)cc2)s1 [Example 1.145]
  IC50: 995 nM

## CC(=O)N[C@@H](C)c1ccc(O[C@@H]2CCN(c3ccnc(N4CCC(C)(O)C4)c3Cl)C2)cc1 (some centres unmarked) [Example 10.54]
  IC50: 114 nM

## CCOc1ccnc(N2CC[C@@H](Oc3ccc([C@H](C)NC(C)=O)cc3)C2)c1F [Example 9.69]
  IC50: 603 nM

## C[C@H](NC(=O)N(C)C)c1ccc(OC2CCN(c3ccnc(OCC(F)F)c3F)C2)cc1 (some centres unmarked) [Example 5.9]
  IC50: 73 nM

## CC(=O)N[C@@H](C)c1ccc(O[C@@H]2CCN(c3ccnc(OCC4CC4C#N)c3)C2)cc1 (some centres unmarked) [Example 9.24]
  IC50: 55 nM

## CC(=O)N[C@@H](C)c1ccc(OC2CCN(c3cccc(C4CCCC4)n3)C2)cc1 (some centres unmarked) [Example 1.84]
  IC50: 115 nM

## Cc1[nH]ncc1C(=O)N[C@@H](C)c1ccc(OC2CCN(c3ccnc(OCC(F)F)c3)C2)cc1 (some centres unmarked) [Example 2.98]
  IC50: 282 nM

## CC(=O)N[C@@H](C)c1ccc(OC2CCN(c3cc(OCC4CC4)ncc3C)C2)cc1 (some centres unmarked) [Example 1.25]
  IC50: 228 nM

## CC(C)Oc1cc(N2CCC(Oc3ccc([C@H](C)NC(=O)CC(F)(F)F)cc3)C2)ccn1 (some centres unmarked) [Example 2.11]
  IC50: 1000 nM

## CCNC(=O)N[C@@H](C)c1ccc(OC2CCN(c3ccc(OCC4CC4(F)F)cn3)C2)cc1 (some centres unmarked) [Example 3.3]
  IC50: 150 nM

## CNc1cccc(N2CC[C@@H](Oc3ccc([C@H](C)NC(C)=O)cc3)C2)n1 [Example 10.21]
  IC50: 963 nM

## CCCOc1cc(N2CCC(Oc3ccc([C@H](C)NC(C)=O)cc3)C2)c(F)cn1 (some centres unmarked) [Example 1.72]
  IC50: 70 nM

## CC(=O)N[C@@H](C)c1ccc(O[C@@H]2CCN(c3ccnc(OCC(C)C)c3F)C2)cc1 [Example 9.50]
  IC50: 110 nM

## CC(=O)N[C@@H](C)c1ccc(OC2CCN(c3cc(OCC(F)F)ncc3C)C2)cc1 (some centres unmarked) [Example 1.92]
  IC50: 524 nM

## CC(=O)N[C@@H](C)c1ccc(OC2CCN(c3cccc(C(F)F)n3)C2)cc1 (some centres unmarked) [Example 1.64]
  IC50: 154 nM

## Cc1nocc1C(=O)N[C@@H](C)c1ccc(OC2CCN(c3cccc(C(F)(F)F)n3)C2)cc1 (some centres unmarked) [Example 2.43]
  IC50: 57 nM

## CCCN(C)c1cccc(N2CC[C@@H](Oc3ccc([C@H](C)NC(C)=O)cc3)C2)n1 [Example 10.5]
  IC50: 182 nM

## CC(=O)N[C@@H](C)c1ccc(OC2CCN(c3ncc(OCC4CC4(F)F)cc3F)C2)cc1 (some centres unmarked) [Example 1.23]
  IC50: 115 nM
